Measured values published in PMC11456916, “A screen for cell envelope stress uncovers an inhibitor of prolipoprotein diacylglyceryl transferase, Lgt, in Escherichiacoli” (iScience, 2024).

Test system: 356 CRISPRi constructs in E. coli ΔtolC-pore
Assay: CRISPRi collection fitness screen with sub-inhibitory compound
Type: cell-based
Conditions: for Growth represented as mean colony biomass: 1μg/ml MAC0452936, 6ng/ml LolCDE-in-1, 250 ng/ml Vancomycin, 7 ng/ml CHIR090, n=4; for Growth, mean colony biomass (n=4): + 1μg/ml MAC0452936
In short: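 Mobile CRISPRi collection conjugated into the ΔtolC-pore strain and pinned on agar at 1536 density in technical quadruplicate with a sub-inhibitory MAC-0452936 concentration. No CRISPRi induction; only basal 5–10% knockdown.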

## COc1ccc(C(=O)O/N=C(\c2cccs2)C(C)(C)C)cc1 [MAC0452936]
gRNA accA
  Growth represented as mean colony biomass: 0.9619
gRNA aceF
  Growth, mean colony biomass (n=4): 1.536
gRNA alaS
  Growth, mean colony biomass (n=4): 1.17
gRNA argS
  Growth, mean colony biomass (n=4): 1.078
gRNA asnS
  Growth, mean colony biomass (n=4): 1.097
gRNA bamA
  Growth, mean colony biomass (n=4): 1.082
gRNA bamD
  Growth, mean colony biomass (n=4): 1.114
gRNA bioA
  Growth, mean colony biomass (n=4): 1.093
gRNA can
  Growth, mean colony biomass (n=4): 1.0791
gRNA cca
  Growth represented as mean colony biomass: 0.9631
gRNA coaA
  Growth represented as mean colony biomass: 0.9606
gRNA csrA
  Growth, mean colony biomass (n=4): 1.147
gRNA cydA
  Growth represented as mean colony biomass: 0.9568
gRNA cydX
  Growth represented as mean colony biomass: 0.9584
gRNA dapD
  Growth represented as mean colony biomass: 0.9537
gRNA dapE
  Growth represented as mean colony biomass: 0.9829
gRNA der
  Growth represented as mean colony biomass: 0.8304
gRNA dfp
  Growth represented as mean colony biomass: 0.9766
gRNA dnaC
  Growth, mean colony biomass (n=4): 1.0695
gRNA dnaE
  Growth represented as mean colony biomass: 0.9743
gRNA dnaN
  Growth represented as mean colony biomass: 0.9941
gRNA dnaX
  Growth represented as mean colony biomass: 0.9797
gRNA dut
  Growth, mean colony biomass (n=4): 1.096
gRNA eno
  Growth represented as mean colony biomass: 0.9696
gRNA era
  Growth represented as mean colony biomass: 0.9809
gRNA fabA
  Growth represented as mean colony biomass: 0.9981
gRNA fabG
  Growth represented as mean colony biomass: 0.9894
gRNA fabI
  Growth represented as mean colony biomass: 0.9716
gRNA fdx
  Growth represented as mean colony biomass: 0.9955
gRNA fldA
  Growth represented as mean colony biomass: 0.9924
gRNA folA
  Growth, mean colony biomass (n=4): 1.134
gRNA folB
  Growth represented as mean colony biomass: 0.9792
gRNA folC
  Growth, mean colony biomass (n=4): 1.076
gRNA folE
  Growth represented as mean colony biomass: 0.9726
gRNA folP
  Growth represented as mean colony biomass: 0.9946
gRNA frr
  Growth represented as mean colony biomass: 0.9805
gRNA ftsA
  Growth, mean colony biomass (n=4): 1.121
gRNA gapA
  Growth represented as mean colony biomass: 0.983
gRNA glmS
  Growth, mean colony biomass (n=4): 1.092
gRNA glmU
  Growth represented as mean colony biomass: 0.9808
gRNA gltX
  Growth represented as mean colony biomass: 0.9823
gRNA glyA
  Growth, mean colony biomass (n=4): 1.091
gRNA groS
  Growth represented as mean colony biomass: 0.9881
gRNA grpE
  Growth represented as mean colony biomass: 0.9656
gRNA guaA
  Growth represented as mean colony biomass: 0.9795
gRNA hemD
  Growth, mean colony biomass (n=4): 1.079
gRNA hemG
  Growth represented as mean colony biomass: 0.9986
gRNA hemH
  Growth represented as mean colony biomass: 1.001
gRNA hemL
  Growth represented as mean colony biomass: 0.9838
gRNA higA
  Growth represented as mean colony biomass: 0.9635
gRNA hisS
  Growth represented as mean colony biomass: 0.9859
gRNA holD
  Growth represented as mean colony biomass: 0.9764
gRNA hscA
  Growth represented as mean colony biomass: 0.9953
gRNA infA
  Growth, mean colony biomass (n=4): 1.088
gRNA infC
  Growth represented as mean colony biomass: 0.9986
gRNA iscU
  Growth represented as mean colony biomass: 0.9867
gRNA ispB
  Growth represented as mean colony biomass: 0.9983
gRNA ispF
  Growth represented as mean colony biomass: 0.9875
gRNA leuS
  Growth, mean colony biomass (n=4): 1.417
gRNA lexA
  Growth, mean colony biomass (n=4): 1.542
gRNA lolC
  Growth represented as mean colony biomass: 0.9579
gRNA lptA
  Growth, mean colony biomass (n=4): 1.476
gRNA lptB
  Growth, mean colony biomass (n=4): 1.32
gRNA lptC
  Growth represented as mean colony biomass: 0.9585
gRNA lptE
  Growth represented as mean colony biomass: 0.965
gRNA lptF
  Growth represented as mean colony biomass: 0.9902
gRNA lptG
  Growth represented as mean colony biomass: 0.9845
gRNA lpxC
  Growth represented as mean colony biomass: 0.9609
gRNA lpxD
  Growth represented as mean colony biomass: 0.9569
gRNA mnmA
  Growth, mean colony biomass (n=4): 1.086
gRNA mrdB
  Growth, mean colony biomass (n=4): 1.167
gRNA mreB
  Growth represented as mean colony biomass: 0.9936
gRNA mreC
  Growth represented as mean colony biomass: 0.9829
gRNA msbA
  Growth, mean colony biomass (n=4): 1.264
gRNA mukF
  Growth, mean colony biomass (n=4): 1.116
gRNA murB
  Growth represented as mean colony biomass: 0.9708
gRNA murC
  Growth represented as mean colony biomass: 0.97
gRNA murI
  Growth, mean colony biomass (n=4): 1.3051
gRNA nadK
  Growth, mean colony biomass (n=4): 1.081
gRNA nusB
  Growth represented as mean colony biomass: 0.9578
gRNA plsB
  Growth represented as mean colony biomass: 0.995
gRNA prmC
  Growth, mean colony biomass (n=4): 1.083
gRNA proS
  Growth represented as mean colony biomass: 0.9787
gRNA psd
  Growth, mean colony biomass (n=4): 1.711
gRNA pssA
  Growth, mean colony biomass (n=4): 1.089
gRNA ptsI
  Growth, mean colony biomass (n=4): 1.104
gRNA racR
  Growth represented as mean colony biomass: 0.9926
gRNA rho
  Growth, mean colony biomass (n=4): 1.226
gRNA ribA
  Growth represented as mean colony biomass: 0.9923
gRNA ribC
  Growth represented as mean colony biomass: 0.9978
gRNA ribD
  Growth, mean colony biomass (n=4): 1.096
gRNA ribF
  Growth represented as mean colony biomass: 0.9646
gRNA rimM
  Growth represented as mean colony biomass: 0.9609
gRNA rluD
  Growth represented as mean colony biomass: 0.9905
gRNA rne
  Growth, mean colony biomass (n=4): 1.098
gRNA rpe
  Growth represented as mean colony biomass: 0.9763
gRNA rplA
  Growth, mean colony biomass (n=4): 1.0727
gRNA rplD
  Growth represented as mean colony biomass: 0.8324
gRNA rplE
  Growth represented as mean colony biomass: 0.9904
gRNA rplJ
  Growth represented as mean colony biomass: 0.9775
gRNA rplO
  Growth represented as mean colony biomass: 0.9724
gRNA rplP
  Growth, mean colony biomass (n=4): 1.071
gRNA rplQ
  Growth represented as mean colony biomass: 0.9778
gRNA rplS
  Growth represented as mean colony biomass: 0.9888
gRNA rplV
  Growth, mean colony biomass (n=4): 1.1552
gRNA rplX
  Growth, mean colony biomass (n=4): 1.077
gRNA rplY
  Growth represented as mean colony biomass: 0.9853
gRNA rpmC
  Growth, mean colony biomass (n=4): 1.078
gRNA rpmH
  Growth represented as mean colony biomass: 0.9594
gRNA rpmI
  Growth represented as mean colony biomass: 1.001
gRNA rpoC
  Growth, mean colony biomass (n=4): 1.115
gRNA rpoE
  Growth, mean colony biomass (n=4): 1.071
gRNA rpoH
  Growth represented as mean colony biomass: 0.994
gRNA rpsC
  Growth, mean colony biomass (n=4): 1.101
gRNA rpsD
  Growth, mean colony biomass (n=4): 1.173
gRNA rpsE
  Growth represented as mean colony biomass: 0.8351
gRNA rpsF
  Growth represented as mean colony biomass: 0.9675
gRNA rpsG
  Growth, mean colony biomass (n=4): 1.126
gRNA rpsH
  Growth represented as mean colony biomass: 0.8152
gRNA rpsK
  Growth, mean colony biomass (n=4): 1.169
gRNA rpsL
  Growth, mean colony biomass (n=4): 1.132
gRNA rpsM
  Growth, mean colony biomass (n=4): 1.248
gRNA rpsR
  Growth, mean colony biomass (n=4): 1.124
gRNA rpsT
  Growth, mean colony biomass (n=4): 1.094
gRNA rsgA
  Growth represented as mean colony biomass: 0.8391
gRNA safA
  Growth represented as mean colony biomass: 0.9619
gRNA secA
  Growth, mean colony biomass (n=4): 1.102
gRNA secY
  Growth represented as mean colony biomass: 0.8296
gRNA serS
  Growth represented as mean colony biomass: 0.9537
gRNA ssb
  Growth represented as mean colony biomass: 0.8295
gRNA sucA
  Growth represented as mean colony biomass: 0.8419
gRNA suhB
  Growth, mean colony biomass (n=4): 1.09
gRNA tilS
  Growth represented as mean colony biomass: 0.9915
gRNA tonB
  Growth represented as mean colony biomass: 0.9615
gRNA trmD
  Growth represented as mean colony biomass: 0.9721
gRNA tsaB
  Growth represented as mean colony biomass: 0.9923
gRNA tsaD
  Growth represented as mean colony biomass: 0.966
gRNA tsaE
  Growth, mean colony biomass (n=4): 1.071
gRNA tsf
  Growth represented as mean colony biomass: 0.966
gRNA tusE
  Growth represented as mean colony biomass: 0.9697
gRNA tyrS
  Growth represented as mean colony biomass: 0.9746
gRNA ubiB
  Growth represented as mean colony biomass: 0.9956
gRNA ubiD
  Growth represented as mean colony biomass: 0.9717
gRNA waaA
  Growth, mean colony biomass (n=4): 1.073
gRNA ydaS
  Growth represented as mean colony biomass: 0.9729
gRNA ydcD
  Growth represented as mean colony biomass: 0.9759
gRNA ydhL
  Growth represented as mean colony biomass: 1
gRNA yedN
  Growth, mean colony biomass (n=4): 1.142
gRNA yejM
  Growth represented as mean colony biomass: 0.9938
gRNA yffS
  Growth represented as mean colony biomass: 0.9919
gRNA ygeF
  Growth represented as mean colony biomass: 0.966
gRNA ygeN
  Growth, mean colony biomass (n=4): 1.0865
gRNA yidC
  Growth represented as mean colony biomass: 0.8136
gRNA ymfE
  Growth represented as mean colony biomass: 0.9804
gRNA ymiB
  Growth represented as mean colony biomass: 0.9585
gRNA yqeL
  Growth, mean colony biomass (n=4): 1.316
gRNA yqgF
  Growth represented as mean colony biomass: 0.9701
gRNA zipA
  Growth, mean colony biomass (n=4): 1.803
